Measured values from PubChem BioAssay (NCI).
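Each compound was tested at five concentrations against cells in 96-well plates for 48 hours. At the GI50, growth is halved. TGI: total growth inhibition.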 Where a SMILES comes first, the peptide text is derived from it. [ ]: non-standard residue; d: D form. ξ: configuration not given here. ξ2Thi = NC(Cc1cccs1)C(=O)O; ξR = N=C(N)NCCCC(N)C(=O)O; ξI = CCC(C)C(N)C(=O)O; ξL = CC(C)CC(N)C(=O)O; ξK = NCCCCC(N)C(=O)O; ξT = CC(O)C(N)C(=O)O; ξA = CC(N)C(=O)O

Legend:
Test in all cases: inhibition of tumour cell growth, NCI panel, 48 h
[1] = test system: NCI-H226 lung
[2] = test system: NCI-H23 lung
[3] = test system: BT-549 breast
[4] = test system: UACC-257 melanoma
[5] = test system: SK-OV-3 ovarian
[6] = test system: OVCAR-3 ovarian
[7] = test system: HOP-92 NSCLC
[8] = test system: HCT-15 colon
[9] = test system: SN12C renal
[10] = test system: UACC-62 melanoma
[11] = test system: NCI-H522 lung
[12] = test system: A549 NSCLC
[13] = test system: HL-60(TB) leukemia
[14] = test system: NCI-H460 lung
[15] = test system: HS 578T breast
[16] = test system: DU-145 prostate
[17] = test system: ACHN renal
[18] = test system: OVCAR-4 ovarian
[19] = test system: 786-0 renal
[20] = test system: K-562 leukemia
[21] = test system: CAKI-1 renal
[22] = test system: IGROV1 ovarian
[23] = test system: SNB-75 CNS
[24] = test system: MCF7 breast
[25] = test system: U251 CNS
[26] = test system: NCI/ADR-RES ovarian
[27] = test system: OVCAR-8 ovarian
[28] = test system: COLO 205 colon
[29] = test system: RXF 393 renal
[30] = test system: LOX IMVI melanoma
[31] = test system: OVCAR-5 ovarian
[32] = test system: MALME-3M melanoma
[33] = test system: HCC-2998 colon
[34] = test system: HCT-116 colon
[35] = test system: RPMI-8226 leukemia
[36] = test system: M14 melanoma
[37] = test system: SW-620 colon
[38] = test system: SF-268 CNS
[39] = test system: UO-31 renal
[40] = test system: HOP-62 NSCLC
[41] = test system: T-47D breast
[42] = test system: KM12 colon
[43] = test system: TK-10 renal
[44] = test system: CCRF-CEM leukemia
[45] = test system: SF-295 CNS
[46] = test system: EKVX NSCLC
[47] = test system: MDA-MB-435
[48] = test system: MOLT-4 leukemia
[49] = test system: MDA-MB-231 breast
[50] = test system: PC-3 prostate
[51] = test system: SF-539 CNS
[52] = test system: SK-MEL-2 melanoma
[53] = test system: SK-MEL-28 melanoma
[54] = test system: HT29 colon
[55] = test system: SNB-19 CNS
[56] = test system: SK-MEL-5 melanoma
[57] = test system: A498 renal

CCC(C)C(NC(=O)C(Cc1cccs1)NC(=O)C(CC(C)C)NC(=O)C(CC(C)C)NC(=O)C(CCCCN)NC(=O)C(CCCN=C(N)N)NC(=O)[C@H](Cc1ccc(O)cc1)NC(=O)C(NC(=O)C(C)NC(=O)C(N)CC(C)C)C(C)O)C(=O)NC(CC(C)C)C(N)=O (some centres not stated) (H-[ξL][ξA][ξT]Y[ξR][ξK][ξL][ξL][ξ2Thi][ξI][ξL]-NH2)
TGI [1]: > 50 µM | TGI [2]: > 50 µM | TGI [3]: > 50 µM | TGI [4]: > 50 µM

ClCCCN(CCCCl)c1ccc(C=Nc2cccc(Cl)c2)cc1
TGI [5]: > 100 µM | TGI [6]: 57.9 µM | TGI [1]: 8.67 µM | TGI [7]: > 100 µM | TGI [8]: > 100 µM | TGI [9]: > 79.7 µM | TGI [10]: 15.4 µM | TGI [11]: > 100 µM | TGI [12]: > 79.7 µM | TGI [2]: 53.5 µM | TGI [13]: 58.4 µM | TGI [14]: > 82.1 µM | TGI [15]: 71.8 µM | TGI [16]: > 44.6 µM | TGI [17]: > 100 µM | TGI [18]: > 79.5 µM | TGI [19]: > 67.2 µM | TGI [20]: > 83.9 µM | TGI [21]: 11.8 µM | TGI [22]: > 100 µM | TGI [23]: > 100 µM | TGI [24]: > 70.4 µM | TGI [25]: > 89.1 µM | TGI [26]: 52.5 µM | TGI [27]: 56.5 µM | GI50 [3]: 71.2 µM | TGI [3]: > 100 µM | TGI [28]: > 100 µM | TGI [29]: > 52.7 µM | TGI [30]: > 100 µM | TGI [31]: > 91.4 µM | TGI [32]: 44.3 µM | TGI [33]: > 100 µM | TGI [34]: > 66.6 µM | TGI [35]: 55 µM | TGI [36]: > 76.3 µM | TGI [37]: > 100 µM | TGI [38]: > 71.1 µM | TGI [39]: 88.3 µM | TGI [40]: > 75.1 µM | TGI [4]: > 77 µM | TGI [41]: 44.8 µM | TGI [42]: > 80.6 µM | TGI [43]: 26.6 µM | TGI [44]: 65.2 µM | TGI [45]: > 82.4 µM | TGI [46]: > 100 µM | TGI [47]: > 80.5 µM | TGI [48]: > 67.4 µM | TGI [49]: > 73.7 µM | TGI [50]: 50.7 µM | TGI [51]: > 100 µM | TGI [52]: > 100 µM | TGI [53]: > 100 µM | TGI [54]: > 100 µM | TGI [55]: > 100 µM | TGI [56]: 36.7 µM

COc1ccc(Oc2cccc(/C=C3/C(=O)Nc4ccccc43)c2)cc1
TGI [5]: 31 µM | TGI [6]: 21.6 µM | TGI [7]: 14.3 µM | TGI [57]: 25.4 µM | TGI [8]: 21.8 µM | TGI [9]: 22.8 µM | TGI [11]: 19.6 µM | TGI [12]: > 100 µM | TGI [2]: 16.2 µM | TGI [13]: 12.5 µM | TGI [14]: 25 µM | TGI [15]: 45.8 µM | TGI [16]: 27.1 µM | TGI [17]: 23.8 µM | TGI [18]: 27 µM | TGI [19]: 24.1 µM | TGI [20]: 7.63 µM | TGI [21]: 20.9 µM | TGI [22]: 20.9 µM | TGI [23]: 28.3 µM | TGI [24]: 12.8 µM | TGI [25]: 14.2 µM | TGI [26]: 17.8 µM | TGI [27]: > 100 µM | TGI [3]: 29.5 µM | TGI [28]: 14 µM | TGI [29]: 15.7 µM | TGI [31]: 31.5 µM | TGI [32]: 24.2 µM | TGI [33]: 21.3 µM | TGI [34]: 15.2 µM | TGI [36]: 24.3 µM | TGI [37]: 23.2 µM | TGI [38]: 24.1 µM | TGI [39]: 20 µM | TGI [40]: 28 µM | TGI [4]: 27.8 µM | TGI [41]: 9.75 µM | TGI [42]: 18 µM | TGI [43]: 29.9 µM | TGI [44]: 22.1 µM | TGI [45]: 19.9 µM | TGI [46]: 25.1 µM | TGI [47]: 13.8 µM | TGI [48]: 13 µM | TGI [50]: 18.8 µM | TGI [51]: 33.1 µM | TGI [52]: 23 µM | TGI [53]: 23.6 µM | TGI [54]: 12.9 µM | TGI [55]: 19.1 µM | TGI [56]: 11.3 µM

CC(=O)OC1C(C)OC(Oc2c(C)c3c4c(c2O)[C@@H](C)CC[C@@H]4[C@@H](C)C[C@H]3C=C(C)C)C(O)C1O (some centres not stated)
GI50 [6]: 1.7 µM | TGI [6]: 3.33 µM | GI50 [7]: 3.73 µM | TGI [7]: 9.56 µM | GI50 [57]: 4.43 µM | TGI [57]: 14.7 µM | GI50 [11]: 49.7 µM | TGI [11]: > 100 µM | GI50 [12]: 10 µM | TGI [12]: > 100 µM | GI50 [14]: 3.57 µM | TGI [14]: > 100 µM | GI50 [15]: 2.43 µM | TGI [15]: 5.51 µM | GI50 [18]: 3.2 µM | TGI [18]: > 100 µM | GI50 [20]: 2.24 µM | TGI [20]: 5.27 µM | GI50 [21]: 1.87 µM | TGI [21]: 3.74 µM | GI50 [22]: 46.2 µM | TGI [22]: > 100 µM | GI50 [24]: 5.81 µM | TGI [24]: > 100 µM | GI50 [26]: 2.96 µM | TGI [26]: 9.13 µM | GI50 [27]: 37.8 µM | TGI [27]: > 100 µM | GI50 [28]: 3.98 µM | TGI [28]: > 100 µM | GI50 [29]: 4.11 µM | TGI [29]: 20.9 µM | GI50 [32]: 1.82 µM | TGI [32]: 4.19 µM | GI50 [38]: 16 µM | TGI [38]: 55.3 µM | GI50 [39]: 22.6 µM | TGI [39]: > 100 µM | GI50 [40]: 2.26 µM | TGI [40]: 5.3 µM | GI50 [42]: 1.87 µM | TGI [42]: 3.66 µM | GI50 [43]: 1.79 µM | TGI [43]: 3.67 µM | GI50 [47]: 2.13 µM | TGI [47]: 4.49 µM | GI50 [48]: 2.23 µM | TGI [48]: > 100 µM | GI50 [52]: > 100 µM | TGI [52]: > 100 µM | GI50 [55]: 3.41 µM | TGI [55]: > 100 µM | GI50 [56]: 2.49 µM | TGI [56]: 5.39 µM

O=C(OCc1ccccc1CN1CCOCC1)c1cccc(Br)c1
TGI [5]: > 100 µM | TGI [6]: 44.3 µM | TGI [1]: > 100 µM | TGI [7]: > 100 µM | TGI [57]: > 100 µM | TGI [8]: > 100 µM | TGI [9]: > 100 µM | TGI [10]: > 100 µM | TGI [11]: 53.4 µM | TGI [12]: > 100 µM | TGI [2]: 80 µM | TGI [14]: > 100 µM | TGI [15]: > 100 µM | TGI [16]: > 100 µM | TGI [17]: > 100 µM | TGI [18]: 70 µM | TGI [19]: > 100 µM | TGI [20]: > 100 µM | TGI [21]: 64.6 µM | TGI [22]: > 100 µM | TGI [23]: > 100 µM | TGI [24]: > 100 µM | TGI [25]: > 100 µM | TGI [26]: 79.8 µM | TGI [27]: > 100 µM | TGI [3]: > 100 µM | TGI [28]: > 100 µM | TGI [29]: > 100 µM | TGI [30]: > 100 µM | TGI [31]: > 100 µM | TGI [32]: 45 µM | TGI [33]: > 100 µM | TGI [34]: > 100 µM | TGI [36]: > 100 µM | TGI [37]: > 100 µM | TGI [38]: > 100 µM | TGI [39]: > 100 µM | TGI [40]: > 100 µM | TGI [4]: 63.4 µM | TGI [41]: 49.6 µM | TGI [46]: > 100 µM | TGI [47]: > 100 µM | TGI [49]: > 100 µM | TGI [50]: > 100 µM | TGI [51]: > 100 µM | TGI [52]: 52.9 µM | TGI [53]: > 100 µM | TGI [54]: 29.5 µM | TGI [55]: > 100 µM | TGI [56]: 33.3 µM
